Laboratory results reported in the NIST ThermoML archive (doi:10.1016/j.fluid.2013.01.002).

Experiments:
[1] = 298.15 K; 101.33 kPa; Liquid; Vibrating tube method
[2] = refractive index (Na D-line) (dimensionless); conditions: 298.15 K; 101.33 kPa; Liquid; Standard Abbe refractometry
[3] = xn = mol fraction of the nth substance listed; conditions: 298.15 K, 101 kPa, Liquid, Vibrating tube method
[4] = refractive index (Na D-line) (dimensionless); xn = mol fraction of the nth substance listed; conditions: 298.15 K, 101 kPa, Liquid, Standard Abbe refractometry

CCCCCCCCCCCC [dodecane]
Conditions	mass density [kg/m3]	refractive index
[1]	745.52	–
[2]	–	1.4195

CCCCCCCCN(CCCCCCCC)CCCCCCCC [trioctylamine] + CCCCCCCCCCCCO
Conditions	mass density, [3] [kg/m3]	refractive index, [4]
x1 = 0.0498	828.8	1.4416
x1 = 0.1011	827.31	1.4424
x1 = 0.2014	824.49	1.4437
x1 = 0.3012	821.97	1.4447
x1 = 0.4001	819.63	1.4455
x1 = 0.5	817.37	1.4461
x1 = 0.6005	815.19	1.4465
x1 = 0.6995	813.14	1.4469
x1 = 0.799	811.21	1.4473
x1 = 0.8999	809.43	1.4475
x1 = 0.9504	808.63	1.4476

CCCCCCCCCCC [undecane]
Conditions	mass density [kg/m3]	refractive index
[1]	736.73	–
[2]	–	1.415

CCCCCCCCN(CCCCCCCC)CCCCCCCC [trioctylamine] + CCCCCCCCCCCC
Conditions	mass density, [3] [kg/m3]	refractive index, [4]
x1 = 0.0501	751.32	1.4222
x1 = 0.1	756.64	1.4249
x1 = 0.1998	765.98	1.4287
x1 = 0.3	773.95	1.4323
x1 = 0.4	780.79	1.4354
x1 = 0.5001	786.75	1.4381
x1 = 0.6023	792.12	1.4403
x1 = 0.7001	796.7	1.4426
x1 = 0.8025	801	1.4444
x1 = 0.9002	804.65	1.4461
x1 = 0.9499	806.35	1.4468

CCCCCCCCN(CCCCCCCC)CCCCCCCC [trioctylamine] + CCCCCCCCCCC
Conditions	mass density, [3] [kg/m3]	refractive index, [4]
x1 = 0.05	743.91	1.4176
x1 = 0.1	750.33	1.4199
x1 = 0.2017	761.55	1.4243
x1 = 0.3001	770.56	1.4285
x1 = 0.4002	778.34	1.4319
x1 = 0.4997	785.01	1.4351
x1 = 0.6003	790.89	1.438
x1 = 0.6989	795.96	1.4407
x1 = 0.7996	800.52	1.4434
x1 = 0.9003	804.51	1.4455
x1 = 0.9497	806.25	1.4466

CCCCCCCCCCCCO [dodecan-1-ol]
Conditions	mass density [kg/m3]	refractive index
[1]	830.37	–
[2]	–	1.4407

CCCCCCCCN(CCCCCCCC)CCCCCCCC [trioctylamine]
Conditions	mass density [kg/m3]	refractive index
[1]	807.9	–
[2]	–	1.4476
